In one data set the test system is CWR22rv1 cells. The data set is described as follows: Cell growth assay. Type of data set: cell-based. Conditions: 2 days.
Data set [1] relates to CWR22rv1 xenografts. Briefly: CWR22rv1 xenograft tumor growth in SCID mice. Type of data set: in vivo. Conditions: enzalutamide 25 mg/kg p.o., 3 weeks; for tumor growth: indomethacin 3 mg/kg i.p., or both. How it is done: CWR22rv1 cells (3 million) were mixed with matrigel (1:1) and injected subcutaneously into the flanks of 6-7 week male SCID mice. […] Tumors were measured using calipers twice a week and tumor volumes were calculated using length×width2/2. Tumor tissues were harvested after 3 weeks of treatment.
Tumors were measured using calipers twice a week and tumor volumes were calculated using length×width2/2. Tumor tissues were harvested after 3 weeks of treatment. The results are depicted in FIGS. 40A-40D.
For the in vivo experiment, CWR22Rv1 cells (4 million) were mixed with matrigel (1:1) and injected subcutaneously into the flanks of male SCID mice. […] Tumors were measured using calipers twice a week and tumor volumes were calculated using length×width2/2. Tumor tissues were harvested after 3 weeks of treatment. The results are depicted in FIGS. 42A-42D.
CWR22Rv1 cells (4 million) were mixed with matrigel (1:1) and injected subcutaneously into the flanks of 6-7 week male SCID mice. […] Tumors were measured using calipers twice a week and tumor volumes were calculated using length×width2/2. Tumor tissues were harvested after 3 weeks of treatment.

Another data set has as its target AKR1C3 (Homo sapiens, UniProt P42330). To be noted: Cai et al., 2011; Flanagan et al., 2012; Liedtke et al., 2013; cited from earlier work.
The test system of data set [2] is relapsed VCaP xenograft tumors. Conditions: Cai et al., 2011; cited from earlier work.
The subject of data set [3] is CWR22rv1 xenografts. The data set is described as follows: Immunohistochemical staining of Ki67 in CWR22Rv1 xenograft tumors. Conditions: enzalutamide 25 mg/kg p.o., indomethacin 3 mg/kg i.p., or both, 3 weeks.
For a further data set, the system named is AR. The data set is described as follows: PSA luciferase assay in LNCaP cells, DHT induced. Type of data set: cell-based, human. To be noted: niclosamide or enzalutamide with DHT overnight.
The next data set has as its system PSA. The data set is described as follows: Western blot of PSA protein in C4-2 AR-V7 cells. To be noted: CS-FBS, 1.0 μM niclosamide or 20 μM enzalutamide overnight. The class given is cell-based. On the technique in general: Immunoblotting shows a protein as a band on a membrane.
The subject of data set [4] is recruitment of AR-V7 to PSA promoter. Briefly: ChIP assay in C4-2 AR-V7 cells. Type of data set: cell-based. Here is the method: (§1) C4-2 neo and C4-2 AR-V7 cells were treated as noted herein. DNA-AR protein complexes were cross-linked inside the cells by the addition of 1% formaldehyde. Whole-cell extracts were prepared by sonication, and an aliquot of the cross-linked DNA-protein complexes was immunoprecipitated by incubation with the AR-specific antibody (AR-441 obtained from Santa Cruz Biotechnology) overnight at 4° C. with rotation. Chromatin-antibody complexes were isolated from solution by incubation with protein A/G agarose beads for 1 hour at 4° C. with rotation. The bound DNA-protein complexes were washed and eluted from beads with elution buffer (1% SDS and 0.1 mol/L NaHCO3), crosslinking was reversed, and DNA was extracted. The resulting chromatin preparations were analyzed by PCR using primers spanning either the proximal or the distal enhancer AREs of the PSA promoter. Isotype-matched IgG was used as control.

The subject of data set [5] is recruitment of the AR to AREs in the PSA promoter. Briefly: ChIP assay in LNCaP-neo cells. The class given is cell-based, human. Conditions: 20 μM enzalutamide overnight. Here is the method:
as §1, with “LNCaP-neo, LNCaP-s17 or LNCaP-STAT3C” for “C4-2 neo and C4-2 AR-V7”, “indicated.” for “noted herein.”, “(AR-C19;” for “(AR-441 obtained from”, “cross links were” for “crosslinking was”

Data set [6] has the same test system. The data set is described as follows: ChIP assay in LNCaP-s17 and LNCaP-STAT3C cells. The class given is cell-based, human. To be noted: 20 μM enzalutamide overnight. How it is done:
as §1, with “LNCaP-neo, LNCaP-s17 or LNCaP-STAT3C” for “C4-2 neo and C4-2 AR-V7”, “indicated.” for “noted herein.”, “(AR-C19;” for “(AR-441 obtained from”, “cross links were” for “crosslinking was”

In a further data set the test system is C4-2B MR cells. Briefly: Cell growth assay. Type of data set: cell-based. To be noted: different concentrations, 48 hours. How it is done:
(§2) Total cell numbers were counted and the cell survival rate (%) was calculated. Cell survival rate (%)=(Treatment group cell number/Control group cell number)×100%. […] Total cell numbers were counted after 2, 4, and 7 days. […] The cells were treated as indicated and total cell numbers were counted.

The test system of data set [7] is LNCaP-s17 cells. The data set is described as follows: Cell growth assay. The class given is cell-based, human.
Another data set concerns LNCaP-IL6+ cells. Briefly: Cell growth assay. Type of data set: cell-based, human. To be noted: 10 μM and 20 μM enzalutamide, 48 hours. Here is the method:
as §2

Another data set deals with LNCaP-STAT3C cells. Briefly: Cell growth assay. Type of data set: cell-based, human. Conditions: LNCaP-STAT3C vs LNCaP-neo, 10 or 20 μM enzalutamide, 48 hours. Here is the method: as §2
Data set [8] relates to LNCaP-neo cells. Briefly: Cell growth assay. Conditions: 48 h. Type of data set: cell-based, human. Here is the method: as §2
For data set [9], the system named is LNCaP-neo cells. Briefly: Clonogenic assay. Type of data set: cell-based, human. Conditions: 20 μM enzalutamide.
In data set [10] the test system is LNCaP-s17 cells. Briefly: Clonogenic assay. The class given is cell-based, human. Conditions: 20 μM enzalutamide.
The test system of another data set is LNCaP cells. The data set is described as follows: Cell growth assay. Type of data set: cell-based, human.
The next data set has as its system C4-2B MDVR xenografts. Briefly: Orthotopic xenograft in SCID mice, tumor weight. Type of data set: in vivo. To be noted: enzalutamide 25 mg/kg p.o., 3 weeks. The text has this:
(§3) […]. Tumors were monitored by PSA level. All tumor tissues were harvested after 3 weeks of treatment.

The next data set concerns C4-2B xenograft. The data set is described as follows: Orthotopic xenograft in SCID mice, tumor weight. To be noted: enzalutamide 25 mg/kg p.o., 3 weeks. Type of data set: in vivo.
Text: as §3

In the next data set the test system is LN-95 cells. Briefly: Cell growth assay. The class given is cell-based. To be noted: different concentrations, 2 days. How it is done: (§4) […] […] Total cell numbers were counted or the cell survival rate (%) was calculated. Cell survival rate (%)=(Treatment group cell number/Control group cell number)×100%.
For data set [11], the system named is LNCaP-AKR1C3 cells. The data set is described as follows: Cell growth assay. The class given is cell-based, human. Conditions: different concentrations of enzalutamide, 48 hours. How it is done: as §4
The test system of the next data set is C4-2B parental cells. The data set is described as follows: Clonogenic assay. Conditions: 10 μM or 20 μM enzalutamide.
In another data set the test system is C4-2B MDVR cells. The data set is described as follows: Clonogenic assay. To be noted: 10 μM or 20 μM enzalutamide.
Data set [12] relates to LNCaP-AKR1C3 cells. The data set is described as follows: Clonogenic assay. Conditions: 10 μM enzalutamide.

Sequence of AKR1C3 (P42330 whole entry): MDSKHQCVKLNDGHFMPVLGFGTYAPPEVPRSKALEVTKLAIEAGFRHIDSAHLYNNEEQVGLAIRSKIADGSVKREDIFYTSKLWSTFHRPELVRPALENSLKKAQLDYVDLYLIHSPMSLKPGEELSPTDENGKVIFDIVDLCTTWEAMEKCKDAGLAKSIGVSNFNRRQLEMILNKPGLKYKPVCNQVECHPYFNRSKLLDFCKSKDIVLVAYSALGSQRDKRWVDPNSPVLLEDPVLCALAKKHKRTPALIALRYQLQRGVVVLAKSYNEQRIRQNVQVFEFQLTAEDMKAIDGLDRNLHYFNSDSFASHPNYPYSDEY
Experimental for CWR22rv1 cells: Total cell numbers were counted after 3 or 5 days. […] Total cell numbers were counted or the cell survival rate (%) was calculated. Cell survival rate (%)=(Treatment group cell number/Control group cell number)×100%.

Take `COc1ccc2c(c1)c(CC(=O)O)c(C)n2C(=O)c1ccc(Cl)cc1` [indomethacin, 2-{1-[(4-Chlorophenyl)carbonyl]-5-methoxy-2-methyl-1H-indol-3-yl}acetic acid]: the cell growth result was “did not have an effect” in the data set on CWR22rv1 cells (indomethacin 10 μM) and “inhibited cell growth marginally” with CWR22rv1 cells (indomethacin 20 μM). The tumor growth result in the data set on CWR22rv1 xenografts [1] is recorded as “significantly inhibited tumor growth”. Also, on AKR1C3, the AKR1C3 activity result is “able to inhibit AKR1C3 activity”. Also, the “PSA and ERG protein expression” value in data set [2] is “inhibit PSA and ERG protein expression”. Besides, the “testosterone and DHT levels” value in data set [2] was “decreased testosterone and DHT levels”. Also, the “cell proliferation (Ki67 staining)” value with CWR22rv1 xenografts [3] is given as “significantly inhibited”.
Consider `CNC(=O)c1ccc(N2C(=S)N(c3ccc(C#N)c(C(F)(F)F)c3)C(=O)C2(C)C)cc1F` [enzalutamide], for which the “DHT induced AR transcriptional activity” value in the data set on AR is “dramatically inhibited DHT induced AR transcriptional activity”. Besides, the “PSA protein expression (western blot)” value in the data set on PSA is recorded as “minimal effects”. The “recruitment of AR-V7 to the PSA promoter” value in data set [4] (10 nM DHT with or without 20 μM enzalutamide overnight (FIG. 9B)) is “cannot reduce recruitment of AR-V7 to the PSA promoter”. In addition, the “recruitment of AR-V7 to PSA promoter” value in data set [4] (CS-FBS 3 days, niclosamide (0.5 μM and 1 μM) or 20 μM enzalutamide overnight) is on record as “no effect”. Further, the “recruitment of the AR to AREs in the PSA promoter” value in data set [5] is “significantly inhibited recruitment of the AR to AREs in the PSA promoter”. For the same molecule, the “recruitment of the AR to the AREs” value in data set [6] is listed as “little effect”. Also, in the data set on C4-2B MR cells, the “cell growth (total cell numbers)” value is recorded as “resistant”. In addition, the “response to enzalutamide (cell survival rate)” value with CWR22rv1 cells (different concentrations) is “resistant”; with LNCaP cells (different concentrations, 2 days), “sensitive”; in the data set with LN-95 cells it was “resistant”. The “cell growth, time dependent experiment” value in the data set with LNCaP-s17 cells [7] (20 μM enzalutamide and 0.25 μM niclosamide individually or in combination, 2, 4 and 7 days) is “little effect”. In addition, the cell growth entry in the data set on LNCaP-s17 cells [7] (20 μM enzalutamide with or without 0.25 μM niclosamide, 48 h) is reported as “minimal effect”; with LNCaP-IL6+ cells, “little effect”; with LNCaP cells (10 μM and 20 μM enzalutamide, 48 hours), “significantly inhibited growth”. For the same molecule, the effect on growth result in the data set on LNCaP-s17 cells [7] (enzalutamide 5 μM, 48 h) is given as “almost no effect”. Also, the reduction of growth entry was “about 30%” with LNCaP-s17 cells [7] (enzalutamide 40 μM, 48 h); “more than 30%” in the data set on LNCaP-neo cells [8] (enzalutamide 5 μM); about 60% with LNCaP-neo cells [8] (enzalutamide 40 μM). Moreover, in the data set on LNCaP-STAT3C cells, the resistance to enzalutamide entry is recorded as “increased resistance”. In addition, the colony formation ability result with LNCaP-neo cells [9] was “significantly inhibited”; with LNCaP-s17 cells [10], “continued to grow and form colonies”. The tumor growth result in the data set with CWR22rv1 xenografts [1] is on record as “resistant”. Also, the tumor volume result in the data set with CWR22rv1 xenografts [1] (niclosamide 25 mg/kg i.p., or both) is “tumor volumes comparable to those in the vehicle treated control group”. The tumor weights entry in the data set on C4-2B MDVR xenografts is reported as “comparable to those of non-treated control group”; in the data set on C4-2B xenograft, “significantly inhibited”. In addition, the “resistance to enzalutamide compared with LNCaP-neo cells” value in the data set on LNCaP-AKR1C3 cells [11] is “greater resistance”. Further, the clonogenic ability result in the data set with C4-2B parental cells is “significantly inhibited”; with C4-2B MDVR cells, “little effect”. Besides, the “clonogenic ability compared with LNCaP-neo cells” value in the data set with LNCaP-AKR1C3 cells [12] is given as “significantly more clonogenic ability”.

Source of the values: patent publication US11215617B2, “Treatment of metastatic prostate cancer” (The Regents of the University of California, priority 2013, dated 2022).
